Target: T1, 1,25-dihydroxyvitamin D(3) 24-hydroxylase, mitochondrial (Homo sapiens, UniProt Q07973)
T1 sequence (Q07973 whole entry): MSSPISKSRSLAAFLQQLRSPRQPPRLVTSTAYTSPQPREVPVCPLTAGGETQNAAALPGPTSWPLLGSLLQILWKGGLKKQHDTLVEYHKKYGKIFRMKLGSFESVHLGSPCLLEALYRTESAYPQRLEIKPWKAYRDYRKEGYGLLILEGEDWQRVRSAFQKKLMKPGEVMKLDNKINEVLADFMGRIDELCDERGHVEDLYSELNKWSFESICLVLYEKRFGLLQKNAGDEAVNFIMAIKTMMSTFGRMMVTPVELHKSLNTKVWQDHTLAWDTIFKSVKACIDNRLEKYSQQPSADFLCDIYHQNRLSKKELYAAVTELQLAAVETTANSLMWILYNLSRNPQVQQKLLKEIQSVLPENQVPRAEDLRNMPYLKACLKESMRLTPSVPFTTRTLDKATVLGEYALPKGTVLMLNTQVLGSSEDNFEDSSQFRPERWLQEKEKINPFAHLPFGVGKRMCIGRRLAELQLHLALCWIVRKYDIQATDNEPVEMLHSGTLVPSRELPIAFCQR
Test: Inhibition of human CYP24 hydroxylase expressed in V79 cells

- IC50: > 1000 nM
SMILES: C=C1/C(=C\C=C2/CCC[C@]3(C)[C@@H](C(C)=CC(F)=S(N)(=O)c4ccccc4)CC[C@@H]23)C[C@@H](O)C[C@@H]1O (stereo partly specified)
